Measurements published in the supplement of paper PMC9663587.

How the values were obtained:
CAL120 = experiment: GRmax, 72 h; higher = less effect;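 further: breast cell lines in 384-well plates, nine doses across a 10^4 range, Dye Drop imaging of viable cells vs DMSO and time-zero plates, GR 0 means no net growth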
CAMA1 = experiment: GRmax, 72 h; higher = less effect;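 further: breast cell lines in 384-well plates, nine doses across a 10^4 range, Dye Drop imaging of viable cells vs DMSO and time-zero plates, GR 0 means no net growth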
HCC1187 = experiment: GRmax, 72 h; higher = less effect;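 further: breast cell lines in 384-well plates, nine doses across a 10^4 range, Dye Drop imaging of viable cells vs DMSO and time-zero plates, GR 0 means no net growth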
HCC202 = experiment: GRmax, 72 h; higher = less effect;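 further: breast cell lines in 384-well plates, nine doses across a 10^4 range, Dye Drop imaging of viable cells vs DMSO and time-zero plates, GR 0 means no net growth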
MCF10A = experiment: GRmax, 72 h; higher = less effect
SKBR3 = experiment: GRmax, 72 h; higher = less effect
SUM1315 = experiment: GRmax, 72 h; higher = less effect
SUM185PE = experiment: GRmax, 72 h; higher = less effect
SUM190PT = experiment: GRmax, 72 h; higher = less effect
SUM52PE = experiment: GRmax, 72 h; higher = less effect
HCC1569 = experiment: area over the GR curve, 72 h; higher = more effect;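 further: Dye Drop or Deep Dye Drop imaging of viable cells in 384-well plates (Hoechst nuclei, LIVE/DEAD dye), nine half-log doses, GR normalized to DMSO controls and time-zero plates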
HCC1954 = experiment: area over the GR curve, 72 h; higher = more effect;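 further: Dye Drop or Deep Dye Drop imaging of viable cells in 384-well plates (Hoechst nuclei, LIVE/DEAD dye), nine half-log doses, GR normalized to DMSO controls and time-zero plates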
SUM44PE = experiment: area over the GR curve, 72 h; higher = more effect;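 further: Dye Drop or Deep Dye Drop imaging of viable cells in 384-well plates (Hoechst nuclei, LIVE/DEAD dye), nine half-log doses, GR normalized to DMSO controls and time-zero plates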

| SMILES | GRmax, 72 h (CAL120) [GR] | GRmax, 72 h (CAMA1) [GR] | GRmax, 72 h (HCC1187) [GR] | GRmax, 72 h (HCC202) [GR] | GRmax, 72 h (MCF10A) [GR] | GRmax, 72 h (SKBR3) [GR] | GRmax, 72 h (SUM1315) [GR] | GRmax, 72 h (SUM185PE) [GR] | GRmax, 72 h (SUM190PT) [GR] | GRmax, 72 h (SUM52PE) [GR] | area over the GR curve (HCC1569) [GR] | area over the GR curve (HCC1954) [GR] | area over the GR curve (SUM44PE) [GR] |
| --- | --- | --- | --- | --- | --- | --- | --- | --- | --- | --- | --- | --- | --- |
| COc1ccc2c(c1)[C@]1(C[C@H]1c1ccc3c(/C=C/c4ccc(CN5C[C@@H](C)O[C@@H](C)C5)cc4)n[nH]c3c1)C(=O)N2 | 0.175 | -0.0117 | -0.485 | 0.493 | -0.0342 | -0.0682 | -0.232 | 0.364 | 0.12 | 0.121 | 0.435 | 0.995 | 0.898 |
| COc1cccc(OCCCN)c1-c1cc(Nc2cnc(C#N)cn2)n[nH]1 | 0.317 | 0.084 | -0.498 | 0.0486 | 0.351 | -0.406 | -0.419 | 0.559 | -0.101 | -0.292 | 0.355 | 1.21 | 0.75 |
| CC(=O)Nc1cccc(-n2c(=O)n(C3CC3)c(=O)c3c(Nc4ccc(I)cc4F)n(C)c(=O)c(C)c32)c1 (max 1 µM) | 0.415 | 0.553 | 0.76 | 0.526 | 0.225 | 0.683 | 0.133 | 0.904 | 0.744 | 0.577 | 0.135 | 0.401 | 0.186 |
| CCc1cnn2c(NCc3ccc[n+]([O-])c3)cc(N3CCCC[C@H]3CCO)nc12 (max 1 µM) | -0.132 | -0.485 | -0.791 | 0.0907 | -0.23 | -0.621 | -0.667 | 0.18 | -0.659 | -0.33 | 0.541 | 0.629 | 0.334 |
| CC(=O)c1c(C)c2cnc(Nc3ccc(N4CCNCC4)cn3)nc2n(C2CCCC2)c1=O (max 3.162 µM) | 0.669 | 0.282 | 0.646 | 0.691 | 0.454 | 0.35 | 0.3 | 0.852 | 0.347 | 0.346 | 0.0095 | 0.176 | 0.216 |
| CCc1cncnc1N1CCN(Cc2nc3ccc(C(F)(F)F)cc3[nH]2)CC1 (max 10 µM) | 0.924 | 0.655 | 0.575 | 0.673 | 0.721 | 0.734 | 0.595 | 0.182 | 0.461 | 0.446 | 0.0337 | -0.0456 | 0.0041 |
| CCCCOc1c(C(=O)c2c(F)cc(C)cc2F)c[nH]c2nncc1-2 (max 10 µM) | 0.369 | -0.0904 | 0.437 | 0.384 | 0.0637 | -0.0172 | -0.296 | 0.905 | -0.0112 | 0.299 | 0.657 | 0.835 | 1.12 |
| CCN1CCN(Cc2ccc(Nc3ncc(F)c(-c4cc(F)c5nc(C)n(C(C)C)c5c4)n3)nc2)CC1 (max 10 µM) | -0.141 | 0.222 | 0.0999 | 0.3 | 0.151 | 0.143 | -0.144 | 0.486 | -0.582 | 0.332 | 0.132 | 0.458 | 0.651 |
| CNc1nc(-c2ccc3c(N)n[nH]c3c2)cc(N2C[C@@H](C(=O)NC3CCCCC3)CC[C@H]2C)n1 (max 10 µM) | 0.786 | 0.716 | 0.504 | 0.155 | 0.918 | 0.307 | 0.421 | 0.54 | 0.236 | 0.386 | 0.114 | 0.0806 | 0.165 |
| CO[C@@H](C)Cn1c(=O)n(C)c2cnc3ccc(-c4cncc(C(C)(C)O)c4)cc3c21 (max 10 µM) | 0.0419 | -0.458 | -0.718 | -0.0355 | 0.108 | -0.502 | -0.216 | -0.0606 | -0.5 | -0.125 | 0.768 | 0.822 | 1.02 |
| Cc1nn(C)c(COc2ccc(N3CCN(S(=O)(=O)N(C)C)CC3)cc2)c1-c1cccc2c(CCCOc3cccc4ccccc34)c(C(=O)O)n(CCN3CCOCC3)c12 (max 10 µM) | 0.943 | 0.876 | 0.863 | 0.828 | 0.953 | 0.627 | 0.74 | 0.532 | 0.114 | 0.373 | -0.0353 | -0.0351 | 0.14 |
